Experimental data taken from PMC11968843, “Sulphostin-inspired N-phosphonopiperidones as selective covalent DPP8 and DPP9 inhibitors” (Nature Communications, 2025).
Values joined by “and” are separate entries in the source; they are usually repeats but may differ in a detail not shown here. Equal values may be shown once. Read-outs that look alike come from different tables or passages of the source.

Assays:
DPP9 [1] = molecular target: T1, DPP9 (Homo sapiens, UniProt Q86TI2); experiment: biochemical; type: biochemical; parameters: purchased Proteros Biostructures GmbH, Germany; conditions: for DPP9 activity [%]: replicates
T1 sequence (Q86TI2 whole entry): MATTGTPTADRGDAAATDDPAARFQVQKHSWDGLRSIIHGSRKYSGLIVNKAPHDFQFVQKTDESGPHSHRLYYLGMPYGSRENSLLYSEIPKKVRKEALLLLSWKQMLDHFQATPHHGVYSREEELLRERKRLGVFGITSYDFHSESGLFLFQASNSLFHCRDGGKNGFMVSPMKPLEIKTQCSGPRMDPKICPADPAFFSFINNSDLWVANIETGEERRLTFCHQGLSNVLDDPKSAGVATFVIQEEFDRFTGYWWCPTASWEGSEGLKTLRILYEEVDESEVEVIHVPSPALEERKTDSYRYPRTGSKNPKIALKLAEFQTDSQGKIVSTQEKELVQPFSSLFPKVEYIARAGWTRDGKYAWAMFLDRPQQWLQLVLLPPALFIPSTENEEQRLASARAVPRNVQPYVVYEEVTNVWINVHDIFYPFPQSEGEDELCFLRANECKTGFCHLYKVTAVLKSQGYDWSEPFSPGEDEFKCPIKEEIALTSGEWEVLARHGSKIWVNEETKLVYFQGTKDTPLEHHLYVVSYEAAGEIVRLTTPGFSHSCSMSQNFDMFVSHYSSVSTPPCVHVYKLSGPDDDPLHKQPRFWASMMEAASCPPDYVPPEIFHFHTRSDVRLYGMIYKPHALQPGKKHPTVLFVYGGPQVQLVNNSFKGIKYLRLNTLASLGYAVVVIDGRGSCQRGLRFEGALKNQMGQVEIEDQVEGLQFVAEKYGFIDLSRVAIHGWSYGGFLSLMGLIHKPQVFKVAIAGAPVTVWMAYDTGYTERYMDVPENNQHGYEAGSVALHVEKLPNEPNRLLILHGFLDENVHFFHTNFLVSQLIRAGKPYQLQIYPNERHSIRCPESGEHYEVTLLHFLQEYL
Procedure, shortened: (§1)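 Initial velocity of AMC release from fluorogenic GP-AMC substrate read for up to 60 min at 30 °C in HEPES/KOH pH 7.3 buffer with 1 mM DTT. Enzyme (10 nM) preincubated 45 min at 30 °C with inhibitor (0–100 μM, 1% DMSO). IC50 from four-parameter variable-slope fit of triplicates.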

DPP8 [2] = molecular target: T2, DPP8 (Homo sapiens, UniProt Q6V1X1); experiment: biochemical; type: biochemical; conditions: for DPP8 activity [%]: replicates
T2 construct: purchased Proteros Biostructures GmbH, Germany
T2 sequence (Q6V1X1 whole entry): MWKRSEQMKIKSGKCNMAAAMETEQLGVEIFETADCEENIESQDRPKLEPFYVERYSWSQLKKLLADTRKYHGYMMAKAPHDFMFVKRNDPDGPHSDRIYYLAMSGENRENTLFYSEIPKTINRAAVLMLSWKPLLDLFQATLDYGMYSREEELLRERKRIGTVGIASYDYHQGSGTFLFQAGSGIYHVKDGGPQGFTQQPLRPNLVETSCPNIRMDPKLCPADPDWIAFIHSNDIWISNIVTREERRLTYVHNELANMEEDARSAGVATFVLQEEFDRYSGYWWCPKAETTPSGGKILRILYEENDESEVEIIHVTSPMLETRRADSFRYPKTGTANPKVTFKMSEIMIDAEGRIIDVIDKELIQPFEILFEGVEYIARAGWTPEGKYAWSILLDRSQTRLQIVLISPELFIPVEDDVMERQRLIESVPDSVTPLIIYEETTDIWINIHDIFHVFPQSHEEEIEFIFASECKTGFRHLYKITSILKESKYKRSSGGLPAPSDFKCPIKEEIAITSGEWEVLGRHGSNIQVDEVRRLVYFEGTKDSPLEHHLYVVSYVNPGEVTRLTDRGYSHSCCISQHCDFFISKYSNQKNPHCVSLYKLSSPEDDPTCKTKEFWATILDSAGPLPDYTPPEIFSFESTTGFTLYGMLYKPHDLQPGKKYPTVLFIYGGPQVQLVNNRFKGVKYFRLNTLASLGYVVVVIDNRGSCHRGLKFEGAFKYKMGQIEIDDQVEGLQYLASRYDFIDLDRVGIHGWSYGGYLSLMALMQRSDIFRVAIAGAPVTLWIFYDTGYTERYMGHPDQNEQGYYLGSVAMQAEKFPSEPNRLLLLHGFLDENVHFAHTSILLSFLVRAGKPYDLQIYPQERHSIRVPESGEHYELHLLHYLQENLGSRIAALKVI
Procedure, shortened: as §1

DPP4 [3] = molecular target: T3, DPP4 (Homo sapiens, UniProt P27487); experiment: biochemical; type: biochemical; conditions: for DPP4 activity [%]: replicates
T3 construct: purchased Proteros Biostructures GmbH, Germany
T3 sequence (P27487 whole entry): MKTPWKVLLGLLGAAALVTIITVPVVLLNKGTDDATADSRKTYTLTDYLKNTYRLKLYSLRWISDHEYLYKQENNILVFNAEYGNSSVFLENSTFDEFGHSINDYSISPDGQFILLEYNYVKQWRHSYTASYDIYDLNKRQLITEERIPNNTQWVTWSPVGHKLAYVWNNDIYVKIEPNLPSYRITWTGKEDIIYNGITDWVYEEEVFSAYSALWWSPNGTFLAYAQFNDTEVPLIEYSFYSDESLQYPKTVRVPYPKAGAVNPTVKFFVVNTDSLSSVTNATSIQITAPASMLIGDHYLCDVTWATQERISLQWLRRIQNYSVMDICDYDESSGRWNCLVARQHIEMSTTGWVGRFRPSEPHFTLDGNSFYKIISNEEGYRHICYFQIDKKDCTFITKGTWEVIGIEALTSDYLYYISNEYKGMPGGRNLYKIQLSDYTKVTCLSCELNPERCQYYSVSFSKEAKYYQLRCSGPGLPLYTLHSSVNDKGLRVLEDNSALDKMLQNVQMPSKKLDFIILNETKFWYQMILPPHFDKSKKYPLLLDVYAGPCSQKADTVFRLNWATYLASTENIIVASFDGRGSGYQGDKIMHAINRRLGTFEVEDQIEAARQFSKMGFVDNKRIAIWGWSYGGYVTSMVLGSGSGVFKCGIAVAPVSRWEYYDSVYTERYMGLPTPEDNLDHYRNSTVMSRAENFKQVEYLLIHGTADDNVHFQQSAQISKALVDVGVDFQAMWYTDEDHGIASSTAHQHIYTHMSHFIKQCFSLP
Procedure, shortened: as §1

DPP8 [4] = molecular target: T2, DPP8; experiment: Time-dependent DPP8 inhibition kinetics (kobs, KI, kinact, kapp); type: biochemical; conditions: for kobs: n=3
Procedure: (§2) To calculate the reaction rate of covalent bond formation between DPP proteins and inhibitor, kinact, KI and kapp was determined as previously described[30],[51]. Therefore, 250 µM GP-AMC was added simultaneously with a serial dilution of the inhibitor to 10 nM enzyme. Enzyme activity was measured for a maximum of 120 min at 30 °C, and fluorescence intensities were then plotted against time. Data was fitted to the following equation: Y=(vi/kobs)*(1−exp(−kobs*X)) using Graph-Pad Prism v10.2.3. The obtained pseudo-first-order rate constant was used to determine the maximum enzyme inhibition rate (kinact) and binding affinity (KI) by fitting the plot of kobs against inhibitor concentration to the following equation: Y=kinact/1+(KI/[I]) . The efficiency of covalent bond formation (kapp) was calculated by the ratio of kinact/KI. All measurements were performed in triplicates and error bars represent standard errors of the fit.

[5] = molecular target: T4, HEK293 cell lysates (proteome-wide targets of probe 9) (Homo sapiens, UniProt P49368); experiment: Competitive ABPP / direct target identification with alkyne probe 9 in HEK293 cell lysates; type: binding, H. sapiens; conditions: protein CCT3
T4 construct: endogenous in cells; host or cells: HEK293 cell lysate
T4 sequence (P49368 whole entry): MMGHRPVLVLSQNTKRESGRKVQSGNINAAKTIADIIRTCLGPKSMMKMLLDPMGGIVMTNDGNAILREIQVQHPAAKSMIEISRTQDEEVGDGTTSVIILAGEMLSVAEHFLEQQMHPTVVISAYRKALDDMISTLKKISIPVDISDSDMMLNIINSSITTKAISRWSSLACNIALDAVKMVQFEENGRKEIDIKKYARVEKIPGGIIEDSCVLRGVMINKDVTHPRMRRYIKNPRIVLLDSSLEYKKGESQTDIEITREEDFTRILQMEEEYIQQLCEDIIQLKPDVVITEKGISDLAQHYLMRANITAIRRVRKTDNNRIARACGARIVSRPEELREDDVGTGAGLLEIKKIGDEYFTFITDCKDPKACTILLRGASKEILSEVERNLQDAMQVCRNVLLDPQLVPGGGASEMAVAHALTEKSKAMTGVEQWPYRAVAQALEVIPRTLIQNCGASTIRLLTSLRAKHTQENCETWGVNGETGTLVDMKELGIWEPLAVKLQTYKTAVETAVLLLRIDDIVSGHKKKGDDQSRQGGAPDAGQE

[6] = molecular target: T5, HEK293 cell lysates (proteome-wide targets of probe 9) (Homo sapiens, UniProt P62805); experiment: as above; type: binding, H. sapiens; conditions: protein HIST1H4A
T5 construct: endogenous in cells; host or cells: HEK293 cell lysate

[7] = molecular target: T6, HEK293 cell lysates (proteome-wide targets of probe 9) (Homo sapiens, UniProt P22626); experiment: as above; type: binding, H. sapiens; conditions: protein HNRNPA2B1;HNRPA2B1
T6 construct: endogenous in cells; host or cells: HEK293 cell lysate
T6 sequence (P22626 whole entry): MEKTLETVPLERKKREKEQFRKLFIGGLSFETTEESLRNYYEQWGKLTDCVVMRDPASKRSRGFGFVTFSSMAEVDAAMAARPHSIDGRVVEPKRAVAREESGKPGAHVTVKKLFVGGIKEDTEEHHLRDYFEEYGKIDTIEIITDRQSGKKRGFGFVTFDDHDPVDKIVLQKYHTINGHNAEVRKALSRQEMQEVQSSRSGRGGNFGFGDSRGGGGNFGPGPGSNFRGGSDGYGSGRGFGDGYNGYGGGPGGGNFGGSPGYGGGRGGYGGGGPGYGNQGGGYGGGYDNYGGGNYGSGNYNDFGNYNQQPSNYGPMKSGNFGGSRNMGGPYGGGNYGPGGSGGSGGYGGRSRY

[8] = molecular target: T7, HEK293 cell lysates (proteome-wide targets of probe 9) (Homo sapiens, UniProt P19338); experiment: as above; type: binding, H. sapiens; conditions: protein NCL
T7 construct: endogenous in cells; host or cells: HEK293 cell lysate
T7 sequence (P19338 whole entry): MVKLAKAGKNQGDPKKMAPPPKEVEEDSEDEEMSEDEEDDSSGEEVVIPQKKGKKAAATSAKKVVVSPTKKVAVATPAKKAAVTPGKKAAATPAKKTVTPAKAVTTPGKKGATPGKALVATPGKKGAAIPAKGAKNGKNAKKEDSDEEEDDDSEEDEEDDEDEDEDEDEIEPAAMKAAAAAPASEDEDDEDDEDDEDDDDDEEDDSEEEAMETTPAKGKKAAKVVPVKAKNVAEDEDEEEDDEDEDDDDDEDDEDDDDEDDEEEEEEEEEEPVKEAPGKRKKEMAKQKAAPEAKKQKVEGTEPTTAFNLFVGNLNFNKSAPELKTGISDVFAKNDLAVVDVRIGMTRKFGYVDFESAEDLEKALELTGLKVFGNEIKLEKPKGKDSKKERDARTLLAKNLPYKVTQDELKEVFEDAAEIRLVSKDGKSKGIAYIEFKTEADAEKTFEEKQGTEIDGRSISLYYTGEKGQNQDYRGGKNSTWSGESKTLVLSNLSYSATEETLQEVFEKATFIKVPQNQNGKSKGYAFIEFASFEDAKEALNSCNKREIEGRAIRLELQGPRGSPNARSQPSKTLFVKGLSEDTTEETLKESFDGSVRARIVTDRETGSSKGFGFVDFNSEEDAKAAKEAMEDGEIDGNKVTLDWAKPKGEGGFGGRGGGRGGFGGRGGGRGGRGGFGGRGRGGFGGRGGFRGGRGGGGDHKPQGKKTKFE

DPP4 [9] = molecular target: T3, DPP4; type: biochemical; conditions: for kobs: n=3
Procedure: as §2, with “Therefore, 250 µM GP-AMC was added simultaneously with a serial dilution of the inhibitor to 10 nM enzyme.” left out

DPP9 [10] = molecular target: T1, DPP9; experiment: Time-dependent DPP9 inhibition kinetics (kobs, KI, kinact, kapp); type: biochemical; parameters: purchased Proteros Biostructures GmbH, Germany; conditions: for kobs: n=3
Procedure: as §2

[11] = irreversible inhibition, fit of kobs vs inhibitor concentration

C#CCCCP(=O)(OCC)N1CCCC(N)C1=O.O=C(O)C(F)(F)F (mixture of isomers) [Compound 9]
IC50 (DPP9 [1]; GP-AMC 250 µM, 10 nM enzyme, 45 min pre-incubation at 30 °C, read-out: IC50 DPP9): 1.57 ± 0.092 µM | DPP9 activity [%] (DPP9 [1]; c 156.25 nM): 96.2584% and 100.319% and 101.85% | DPP9 activity [%] (DPP9 [1]; c 312.5 nM): 100.858% and 91.3501% and 92.0123% | DPP9 activity [%] (DPP9 [1]; c 625 nM): 84.7331% and 76.9427% and 84.4618% | DPP9 activity [%] (DPP9 [1]; c 1562.5 nM): 49.8961% and 58.6041% and 49.6299% | DPP9 activity [%] (DPP9 [1]; c 2500 nM): 31.5472% and 27.5156% and 32.2809% | DPP9 activity [%] (DPP9 [1]; c 3125 nM): 24.6772% and 31.33% and 43.1829% | DPP9 activity [%] (DPP9 [1]; c 5000 nM): 13.8796% and 12.6206% and 14.7121% | DPP9 activity [%] (DPP9 [1]; c 6250 nM): 10.217% and 12.6398% and 8.944% | DPP9 activity [%] (DPP9 [1]; c 10000 nM): 3.977% and 3.748% and 3.468% | DPP9 activity [%] (DPP9 [1]; c 25000 nM): 1.6052% and 1.507% and 1.185% | DPP9 activity [%] (DPP9 [1]; c 50000 nM): 0.4873% and 0.1919% and 0.2191% | DPP9 activity [%] (DPP9 [1]; c 100000 nM): -0.1705% and -0.1127% and 0.03998% | potency relative to C8-alkyne compound 10 (DPP8 [2]; DPP8/9 IC50, fold more potent): about 20 fold | IC50 (DPP8 [2]; GP-AMC 250 µM, 10 nM enzyme, 45 min pre-incubation at 30 °C, read-out: IC50 DPP8): 0.668 ± 0.043 µM | DPP8 activity [%] (DPP8 [2]; c 15.625 nM): 88.0116% and 95.2585% and 92.8653% | DPP8 activity [%] (DPP8 [2]; c 31.25 nM): 98.7519% and 93.0125% and 99.7656% | DPP8 activity [%] (DPP8 [2]; c 62.5 nM): 100.514% and 96.8883% and 98.9251% | DPP8 activity [%] (DPP8 [2]; c 250 nM): 89.8086% and 92.0804% and 74.9743% | DPP8 activity [%] (DPP8 [2]; c 312.5 nM): 76.3712% and 75.8504% and 60.7309% | DPP8 activity [%] (DPP8 [2]; c 500 nM): 58.2452% and 66.831% and 55.6678% | DPP8 activity [%] (DPP8 [2]; c 625 nM): 43.0971% and 49.0696% and 43.2225% | DPP8 activity [%] (DPP8 [2]; c 1000 nM): 45.7318% and 41.4388% and 38.9079% | DPP8 activity [%] (DPP8 [2]; c 1562.5 nM): 30.9827% and 31.9714% and 36.8996% | DPP8 activity [%] (DPP8 [2]; c 2500 nM): 6.46% and 6.6893% and 8.361% | DPP8 activity [%] (DPP8 [2]; c 3125 nM): 13.5787% and 24.1011% and 12.0301% | DPP8 activity [%] (DPP8 [2]; c 5000 nM): 1.65% and 1.018% and 2.196% | DPP8 activity [%] (DPP8 [2]; c 6250 nM): 4.899% and 5.3654% and 4.34% | DPP8 activity [%] (DPP8 [2]; c 10000 nM): 0.2086% and 0.07371% and -0.1898% | DPP8 activity [%] (DPP8 [2]; c 25000 nM): 1.765% and 1.4465% and 2.043% | DPP8 activity [%] (DPP8 [2]; c 50000 nM): 2.554% and 1.757% and 1.4548% | DPP8 activity [%] (DPP8 [2]; c 100000 nM): 1.577% and 1.418% and 1.083% | potency relative to alkyl compound 5 (DPP8 [2]; fold more potent inhibitor): about 20 fold | IC50 (DPP4 [3]; GP-AMC 250 µM, 10 nM enzyme, 45 min pre-incubation at 30 °C, read-out: IC50 DPP4): 2.99 ± 0.97 µM | DPP4 activity [%] (DPP4 [3]; c 1562.5 nM): 65.3186% and 69.0903% and 69.4857% | DPP4 activity [%] (DPP4 [3]; c 3125 nM): 56.1551% and 36.739% | DPP4 activity [%] (DPP4 [3]; c 6250 nM): 16.7655% and 22.4037% and 25.1515% | DPP4 activity [%] (DPP4 [3]; c 25000 nM): 0.4601% and 0.7453% and 0.687% | DPP4 activity [%] (DPP4 [3]; c 50000 nM): 0.1815% and 0.2139% and 0.1037% | DPP4 activity [%] (DPP4 [3]; c 100000 nM): 0.1102% and 0.02592% and 0.006479% | kapp (DPP8 [4]; DPP8): 170.93 M⁻¹ s⁻¹ | kinact best fit (DPP8 [4]; DPP8): 0.0005333 s⁻¹ | kobs (DPP8 [4]; DPP8, c 312.5 nM): 5.77e-05 s⁻¹ | kobs (DPP8 [4]; DPP8, c 625 nM): 8.71e-05 s⁻¹ | kobs (DPP8 [4]; DPP8, c 2500 nM): 0.000239 s⁻¹ | KI (inactivation) (DPP8 [4]; DPP8, fit of kobs vs inhibitor concentration, read-out: KI best fit): 3.12 µM | KI (inactivation) (DPP8 [4]; DPP8, read-out: KI best fit): 3.12 µM | kinact DPP8 (DPP8 [4]; [11]): 0.00053 ± 0.00004 s⁻¹ | KI (inactivation) (DPP8 [4]; irreversible inhibition, fit of kobs vs inhibitor concentration, read-out: KI DPP8): 3.12 µM | kapp DPP8 (DPP8 [4]; ratio kinact/KI): 171 M⁻¹ s⁻¹ | Log2-fold change (9/DMSO) [5]: 1.2654 | Log2-fold change (9/DMSO) [6]: -0.9831 | Log2-fold change (9/DMSO) [7]: -0.2704 | Log2-fold change (9/DMSO) [8]: 1.258 | kapp (DPP4 [9]; DPP4): 481.66 M⁻¹ s⁻¹ | kinact best fit (DPP4 [9]; DPP4): 0.005372 s⁻¹ | kobs (DPP4 [9]; DPP4, c 6250 nM): 0.002232 s⁻¹ | kobs (DPP4 [9]; DPP4, c 25000 nM): 0.003486 s⁻¹ | kobs (DPP4 [9]; DPP4, c 50000 nM): 0.004579 s⁻¹ | KI (inactivation) (DPP4 [9]; DPP4, fit of kobs vs inhibitor concentration, read-out: KI best fit): 11.2 µM | KI (inactivation) (DPP4 [9]; DPP4, read-out: KI best fit): 11.2 µM | kinact DPP4 (DPP4 [9]; [11]): 0.00537 ± 0.00033 s⁻¹ | KI (inactivation) (DPP4 [9]; irreversible inhibition, fit of kobs vs inhibitor concentration, read-out: KI DPP4): 11.2 µM | kapp DPP4 (DPP4 [9]; ratio kinact/KI): 482 M⁻¹ s⁻¹ | kapp (DPP9 [10]; DPP9): 68.49 M⁻¹ s⁻¹ | kinact best fit (DPP9 [10]; DPP9): 0.0003473 s⁻¹ | kobs (DPP9 [10]; DPP9, c 312.5 nM): 2.92e-05 s⁻¹ | kobs (DPP9 [10]; DPP9, c 625 nM): 4.78e-05 s⁻¹ | kobs (DPP9 [10]; DPP9, c 2500 nM): 0.000103 s⁻¹ | KI (inactivation) (DPP9 [10]; DPP9, fit of kobs vs inhibitor concentration, read-out: KI best fit): 5.07 µM | KI (inactivation) (DPP9 [10]; DPP9, read-out: KI best fit): 5.07 µM | kinact DPP9 (DPP9 [10]; [11]): 0.00035 ± 0.00007 s⁻¹ | KI (inactivation) (DPP9 [10]; irreversible inhibition, fit of kobs vs inhibitor concentration, read-out: KI DPP9): 5.07 µM | kapp DPP9 (DPP9 [10]; ratio kinact/KI): 68 M⁻¹ s⁻¹
